Reference: patent US20250154212A1, “METHOD OF DISRUPTING MEMORY AND LIPOPEPTIDE FOR USE IN SUCH METHOD” (The Research Foundation for The State University of New York, priority 2023, published 2025)

Target: T1, KIBRA-PKMζ[PKCι/λ-P291Q;F297S] interaction (Homo sapiens, UniProt Q05513, F480S/P474Q)
T1 construct: expressed in transfected cells; host or cells: HEK293T
T1 sequence (Q05513 184-592 P474Q/F480S): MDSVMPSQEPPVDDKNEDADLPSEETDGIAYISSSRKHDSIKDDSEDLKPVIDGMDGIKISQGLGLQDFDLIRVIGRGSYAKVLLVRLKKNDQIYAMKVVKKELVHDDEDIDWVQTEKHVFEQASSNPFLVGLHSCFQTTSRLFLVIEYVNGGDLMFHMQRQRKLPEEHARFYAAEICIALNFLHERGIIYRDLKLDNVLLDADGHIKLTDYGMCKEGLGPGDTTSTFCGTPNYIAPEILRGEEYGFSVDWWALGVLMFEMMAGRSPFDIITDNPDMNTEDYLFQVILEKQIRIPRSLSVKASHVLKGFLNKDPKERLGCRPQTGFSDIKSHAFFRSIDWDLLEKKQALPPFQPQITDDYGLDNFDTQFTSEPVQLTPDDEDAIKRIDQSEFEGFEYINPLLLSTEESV
Assay: BiFC assay of KIBRA with mutant PKMζ[PKCι/λ-P291Q;F297S] in HEK293T cells
Assay type: cell-based
Details: 10 μM
Method: KIBRA-PKMζ BiFC was performed as previously described (28), using pVen1-FLAG-KIBRA and pVen2-HA-PKMζ, in which PKMζ was cloned between EcoR1 and BamH1 sites. The constructs pVen1 and pVen2 encode the N-terminus (amino acids 1-154) and C-terminus (amino acids 155-238) of the Venus protein, respectively, and the Venus fragments were on the N-terminal of the fusion proteins. pVen2-HA-PKMζ[PKCι/λ-P291Q;F297S] was generated by site-directed mutagenesis using forward-cctggagAagcAAatceggatcccccggtCcctgtccgte and reverse-gacggacaggGaccgggggatccggatTTgctTctccagg primers and the QuickChange II XL Site-Directed Mutagenesis Kit (Agilent Technologies), following manufacturer's instructions. Additional pVen2-HA-PKC isoforms and pVen2-HA-CaMKIIα in the pVen2-HA vector were generated by cloning the N-terminus of the coding sequence of each kinase (table S1) to obtain an in-frame fusion at the C-terminus of the pVen2-HA. Human versions of KIBRA and kinases were used, and all PCR amplified sequences and constructs were verified by DNA sequencing.
HEK293T cells were cultured in Dulbecco's Modified Eagle's Medium supplemented with 10% heat-inactivated fetal bovine serum, 100 U/ml penicillin, […] streptomycin, 2 mM glutamine, and 10 mM HEPES in a T75 tissue culture flask with canted neck and ventilated cap. […]

effect on KIBRA interaction with mutated PKMζ[PKCι/λ-P291Q;F297S] (BiFC): does not inhibit
effect on KIBRA interaction with mutated PKMζ[PKCι/λ-P291Q;F297S] (BiFC) (listed as z-stat): has no effects
SMILES: O=S(=O)(O)c1cc(O)c2c(S(=O)(=O)O)cc(S(=O)(=O)O)cc2c1 [ζ-stat, 1-naphthol-3,6,8-trisulphonic acid]
